The compounds below were run against T1, hTRPV3 (Homo sapiens, UniProt Q8NET8) (assay: Whole cell patch clamp inhibition rate test on HEK-293 cells instantaneously expressing TRPV3). Details: HEK293; hTRPV3, single concentration 0.3 μM.
T1 construct: expressed in transfected cells; host or cells: HEK-293
T1 sequence (Q8NET8 1-790): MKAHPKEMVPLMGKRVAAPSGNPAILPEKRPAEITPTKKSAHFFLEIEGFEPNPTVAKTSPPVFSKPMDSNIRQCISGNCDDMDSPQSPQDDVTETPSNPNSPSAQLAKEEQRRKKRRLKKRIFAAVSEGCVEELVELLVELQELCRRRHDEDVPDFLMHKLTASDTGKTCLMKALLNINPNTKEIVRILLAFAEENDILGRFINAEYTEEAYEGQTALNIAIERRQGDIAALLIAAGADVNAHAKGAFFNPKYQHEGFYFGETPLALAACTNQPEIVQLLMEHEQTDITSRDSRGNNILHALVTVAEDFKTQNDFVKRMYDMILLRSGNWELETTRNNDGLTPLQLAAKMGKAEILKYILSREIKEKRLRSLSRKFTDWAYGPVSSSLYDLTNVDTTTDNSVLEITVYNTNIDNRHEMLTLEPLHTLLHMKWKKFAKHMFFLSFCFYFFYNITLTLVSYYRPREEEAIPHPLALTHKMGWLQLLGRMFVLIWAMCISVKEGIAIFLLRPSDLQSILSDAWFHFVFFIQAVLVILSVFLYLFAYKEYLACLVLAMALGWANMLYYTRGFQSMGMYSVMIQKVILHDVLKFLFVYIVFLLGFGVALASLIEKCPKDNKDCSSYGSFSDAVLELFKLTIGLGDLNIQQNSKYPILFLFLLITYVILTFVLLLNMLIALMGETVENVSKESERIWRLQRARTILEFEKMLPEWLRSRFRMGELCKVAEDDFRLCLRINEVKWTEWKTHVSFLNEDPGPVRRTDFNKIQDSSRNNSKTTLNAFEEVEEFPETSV
Type: cell-based
Protocol: In this study, HEK-293 cells instantaneously expressing TRPV3 were used for experimental detection.
The operation steps are as follows:
The cells were cultured in DMEM medium containing 10% fetal bovine serum at a temperature of 37° C. and a carbon dioxide concentration of 5%.
Day 1: Cells were inoculated into a 6-well plate with 5×10^5 cells per well.
Day 2: Transfection was performed using Lipofectamine 3000 transfection reagent, with a plasmid to transfection reagent ratio of 1 μg: 2 μL. The total amount of plasmid used per well was 3 μg. Specifically, two sterile centrifuge tubes were taken and 100 μL Opti-MEM was added to each tube. 6 μL Lipofectamine 3000 was added to one tube and mixed well; and 3 μg plasmid was added to another tube and mixed well, and then 6 μL P3000 was added and mixed well; Subsequently, the diluted plasmid DNA was added to diluted Lipofectamine 3000 and incubated at room temperature for 10-15 min. DNA liposome complex was dropped into the cells, shaked gently and mixed well, and then cultured in an incubator. The liquid was changed after 4 to 6 h.
Day 3: The cells were digested and seeded into 24 well plates with pre-placed cover slides, with 8×10^3 cells per well.
Day 4: Patch clamp testing was performed.
The voltage stimulation protocol for recording TRPV3 current using whole cell patch clamp is as follows: after forming a whole cell seal, a cell membrane voltage clamp was set at −80 mV. Firstly, a membrane potential was recorded at 0 mV, and then a voltage was command to start from −100 mV, to depolarize in the form of Ramp to 100 mV within 100 ms, and finally restore to 0 mV. Data collection was repeated every 5 seconds to observe the inhibitory effect of pharmaceutical on peak current. Experimental data was collected by EPC 10 amplifier (HEKA) and stored in PatchMaster (HEKA) software.
A microelectrode puller was used to pull the capillary glass tube into a recording electrode. The electrode filled with intracellular fluid was inserted into a microelectrode holder, and a microelectrode manipulator was operated under an inverted microscope to immerse the electrode in extracellular fluid and an electrode resistance (Rpip) was recorded. The electrode was brought into contact with the cell surface and a negative pressure suction was applied to form a high resistance seal (GΩ). At this point, a fast capacitance compensation was performed, and negative pressure was continued to apply in order to break the cell membrane, so that a whole cell recording mode was formed. Then, a slow capacitance compensation was performed and experimental parameters such as film capacitance (Cm) and series resistance (Rs) were recorded. No leakage compensation was provided.
When the TRPV3 current recorded by the whole cell had stabilized, administration was started. Each pharmaceutical concentration acted for 5 minutes (or until the current stabilized) before detecting the next concentration. A plurality of concentrations was tested for each test compound. A cover glass covered with cells was placed in a recording bath under an inverted microscope. A blank control extracellular solution and a working fluid for the compound to be tested sequentially flowed through the recording bath from low concentration to high concentration using gravity perfusion to act on the cells. Liquid exchange was performed using a peristaltic pump during recording. The current detected by each cell in the extracellular fluid without the compound served as its own control group. Each concentration was independently tested twice using at least two cells. All electrophysiological tests were conducted at room temperature.

SMILES	inhibition at 0.3 µM
O=C(c1ccc(F)cn1)N1CCC2(CC(O)c3cc(-c4cccc5ccccc45)ccc32)C1 (centres unmarked) [Example 92, (5-fluoropyridin-2-yl)(3-hydroxy-5-(naphthalen-1-yl)-2,3-dihydrospiro[indene-1,3′-pyrrolidine]-1′-yl) ketone]	70 to 100%
CC(C)c1ccccc1-c1ccc2c(c1)[C@H](O)C[C@]21CCN(C(=O)c2csc(Cl)n2)C1 [Example 34, (2-chlorothiazol-4-yl)((1R,3R)-3-hydroxy-5-(2-isopropylphenyl)-2,3-dihydrospiro[indene-1,3′-pyrrolidine]-1′-yl)ketone]	< 25%
CC(C)c1ccccc1-c1ccc2c(c1)C(O)CC21CCN(C(=O)c2ccc3cn[nH]c3n2)C1 (centres unmarked) [Example 75, (3-hydroxy-5-(2-isopropylphenyl)-2,3-dihydrospiro[indene-1,3′-pyrrolidine]-1′-yl)(1Hpyrazolo[3,4-b]pyridin-6-yl) ketone]	25 to 50%
CC(C)c1ccccc1-c1ccc2c(c1)[C@@H](O)C[C@]21CCN(C(=O)c2csc(Cl)n2)C1 [Example 36, (2-chlorothiazol-4-yl)((1R,3S)-3-hydroxy-5-(2-isopropylphenyl)-2,3-dihydrospiro[indene-1,3′-pyrrolidine]-1′-yl)ketone]	< 25%
CC(C)c1ccccc1-c1ccc2c(c1)C(O)CC21CCN(C(=O)c2ccncn2)C1 (centres unmarked) [Example 67, (3-hydroxy-5-(2-isopropylphenyl)-2,3-dihydrospiro[indene-1,3′-pyrrolidine]-1′-yl)(pyrimidin-4-yl)ketone]	50 to 70%
CC(C)c1ccccc1-c1ccc2c(c1)C(O)CC21CCN(C(=O)c2cocn2)C1 (centres unmarked) [Example 70, (3-hydroxy-5-(2-isopropylphenyl)-2,3-dihydrospiro[indene-1,3′-pyrrolidine]-1′-yl)(oxazol-4-yl)ketone]	50 to 70%
O=C(c1csc(Cl)n1)N1CC[C@]2(C[C@@H](O)c3cc(-c4ccccc4C4CC4)ccc32)C1 [Example 30, (2-chlorothiazol-4-yl)((1R,3R)-5-(2-cyclopropylphenyl)-3-hydroxy-2,3-dihydrospiro[indene-1,3′-pyrrolidine]-1′-yl)ketone]	< 25%
CC(C)c1ccccc1-c1ccc2c(c1)C(O)CC21CCN(C(=O)c2cc[nH]n2)C1 (centres unmarked) [Example 71, (3-hydroxy-5-(2-isopropylphenyl)-2,3-dihydrospiro[indene-1,3′-pyrrolidine]-1′-yl)(1H-pyrazol-3-yl)ketone]	50 to 70%
CC1(O)CC2(CCN(C(=O)c3ccc(F)cn3)C2)c2ccc(-c3ccccc3C3CC3)cc21 (centres unmarked) [Example 5, (5-(2-cyclopropylphenyl)-3-hydroxy-3-methyl-2,3-dihydrospiro[indene-1,3′-pyrrolidine]-1′-yl)(5-fluoropyridin-2-yl) ketone]	< 25%
O=C(c1ccc(F)cn1)N1CCC2(CC(O)c3cc(-c4ccccc4OC(F)(F)F)ccc32)C1 (centres unmarked) [Example 82, (5-fluoropyridin-2-yl)(3-hydroxy-5-(2-(trifluoromethoxy)phenyl)-2,3-dihydrospiro[indene-1,3′-pyrrolidine]-1′-yl) ketone]	50 to 70%
O=C(c1ccc(F)cn1)N1CCC2(C1)OB(O)c1cc(-c3ccccc3C3CC3)ccc12 (centres unmarked) [Example 9, (6-(2-cyclopropylphenyl)-1-hydroxy-1H-spiro[benzo[c][1,2]oxaborolane-3,3′-pyrrolidine]-1′-yl)(5-fluoropyridin-2-yl) ketone]	25 to 50%
CC(C)c1ccccc1-c1ccc2c(c1)C(O)CC21CCN(C(=O)c2ncccn2)C1 (centres unmarked) [Example 66, (3-hydroxy-5-(2-isopropylphenyl)-2,3-dihydrospiro[indene-1,3′-pyrrolidine]-1′-yl)(pyrimidin-2-yl)ketone]	25 to 50%
COc1ncnc(OC)c1C(=O)N1CCC2(CC(O)c3cc(-c4ccccc4C4CC4)ccc32)C1 (centres unmarked) [Example 56, (5-(2-cyclopropylphenyl)-3-hydroxy-2,3-dihydrospiro[indene-1,3′-pyrrolidine]-1′-yl)(4,6-dimethoxypyrimidin-5-yl)ketone]	< 25%
Cc1cccc(C(=O)N2CCC3(CC(O)c4cc(-c5ccccc5C5CC5)ccc43)C2)n1 (centres unmarked) [Example 53, (5-(2-cyclopropylphenyl)-3-hydroxy-2,3-dihydrospiro[indene-1,3′-pyrrolidine]-1′-yl)(6-methylpyridin-2-yl)ketone]	70 to 100%

Continued, values first:

inhibition at 0.3 µM	SMILES
25 to 50%	CC(C)c1ccccc1-c1ccc2c(c1)C(O)CC21CCN(C(=O)c2ccc(F)cn2)CC1 (centres unmarked) [Example 4, (5-fluoropyridin-2-yl)(3-hydroxy-5-(2-isopropylphenyl)-2,3-dihydrospiro[indene-1,4′-piperidine]-1′-yl) ketone]
< 25%	CC(C)c1ccccc1S(=O)(=O)c1ccc2c(c1)C(O)CC21CCN(C(=O)c2ccc(F)cn2)C1 (centres unmarked) [Example 108, (5-fluoropyridin-2-yl)(3-hydroxy-5-((2-isopropylphenyl)sulfonyl)-2,3-dihydrospiro[indene-1,3′-pyrrolidine]-1′-yl) ketone]
70 to 100%	O=C(c1ccc(F)cn1)N1CCC2(C[C@@H](O)c3cc(-c4ccccc4C4CC4)ccc32)C1 (stereo partly drawn) [Example 45, ((3R)-5-(2-cyclopropylphenyl)-3-hydroxy-2,3-dihydrospiro[indene-1,3′-pyrrolidine]-1′-yl)(5-fluoropyridin-2-yl) ketone]
< 25%	O=C(c1ccc(F)cn1)N1CC[C@]2(C[C@H](O)c3cc(-c4ccccc4C4CC4)ccc32)C1 [Example 23, ((1R,3S)-5-(2-cyclopropylphenyl)-3-hydroxy-2,3-dihydrospiro[indene-1,3′-pyrrolidine]-1′-yl)(5-fluoropyridin-2-yl)ketone]
< 25%	CC(C)c1ccccc1-c1ccc2c(c1)C1(CCN(C(=O)c3ccc(F)cn3)C1)CC2O (centres unmarked) [Example 103, (5-fluoropyridin-2-yl)(3-hydroxy-6-(2-isopropylphenyl)-2,3-dihydrospiro[indene-1,3′-pyrrolidine]-1′-yl) ketone]
< 25%	CC(C)c1ccccc1-c1ccc2c(c1)C(C(=O)O)CC21CCN(C(=O)c2ccc(F)cn2)C1 (centres unmarked) [Example 129, 1′-(5-fluoropyridoyl)-5-(2-isopropylphenyl)-2,3-dihydrospiro[indene-1,3′-pyrrolidine]-3-carboxylic acid]
70 to 100%	CC(C)c1ccccc1-c1ccc2c(c1)[C@H](O)C[C@@]21CCN(C(=O)c2ccc(F)cn2)C1 [Example 25]
70 to 100%	CC(C)(C)c1ccccc1-c1ccc2c(c1)C(O)CC21CCN(C(=O)c2ccc(F)cn2)C1 (centres unmarked) [Example 88, (5-(2-(tert-butyl)phenyl)-3-hydroxy-2,3-dihydrospiro[indene-1,3′-pyrrolidine]-1′-yl)(5-fluoropyridin-2-yl) ketone]
70 to 100%	CCc1ccccc1-c1ccc2c(c1)C(O)CC21CCN(C(=O)c2ccc(F)cn2)C1 (centres unmarked) [Example 80, (5-(2-ethylphenyl)-3-hydroxy-2,3-dihydrospiro[indene-1,3′-pyrrolidine]-1′-yl)(5-fluoropyridin-2-yl) ketone]

From US20260174786A1, “A NITROGEN-CONTAINING SPIROCYCLIC COMPOUND, PHARMACEUTICAL COMPOSITION AND USE THEREOF” (Prime Gene Therapeutics Co., Ltd., priority 2022, published 2026)
